Results on 9 molecules are retold here after patent US20100048462A1, “TRUNCATED PTH PEPTIDES WITH A CYCLIC CONFORMATION” (Zealand Pharma A/S, priority 2006, published 2010).

Bridge positions count the residues as written; N and C are the ends. Square brackets hold non-standard residues; d marks the D form. Peptide text beside a SMILES is read from it. hArg = N=C(N)NCCCC[C@H](N)C(=O)O; Met(O) = CS(=O)CC[C@H](N)C(=O)O; Ac5c = NC1(C(=O)O)CCCC1; Nva = CCC[C@H](N)C(=O)O; Abu = CC[C@H](N)C(=O)O; Aib = CC(C)(N)C(=O)O

By EC50 is commonly meant the concentration at which the effect is half-maximal.

This assay deals with T1, Saos-2 PTH1R (Homo sapiens, UniProt Q03431).
T1 construct: endogenous in cells; host or cells: Saos-2
T1 sequence (Q03431 27-593): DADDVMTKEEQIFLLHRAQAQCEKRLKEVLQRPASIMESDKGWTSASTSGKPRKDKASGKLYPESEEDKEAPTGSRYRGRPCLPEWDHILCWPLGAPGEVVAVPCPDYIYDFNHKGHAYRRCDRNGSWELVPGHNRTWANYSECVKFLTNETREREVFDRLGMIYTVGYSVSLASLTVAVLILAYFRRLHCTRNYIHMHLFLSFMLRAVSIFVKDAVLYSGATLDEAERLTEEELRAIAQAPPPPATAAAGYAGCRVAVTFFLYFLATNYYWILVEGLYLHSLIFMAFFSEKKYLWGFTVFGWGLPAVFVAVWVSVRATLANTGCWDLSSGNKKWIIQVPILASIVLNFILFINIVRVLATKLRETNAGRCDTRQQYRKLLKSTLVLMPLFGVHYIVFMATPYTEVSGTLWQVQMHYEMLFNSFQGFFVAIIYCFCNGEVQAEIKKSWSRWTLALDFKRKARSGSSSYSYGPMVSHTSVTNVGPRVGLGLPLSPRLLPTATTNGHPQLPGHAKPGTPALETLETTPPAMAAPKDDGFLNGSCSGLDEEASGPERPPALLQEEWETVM
The experiment in a line: cAMP-efficacy assay in Saos-2 cells. In kind it is cell-based. Particulars: for EC50: cAMP, 100 μM IBMX, 37° C. 15 min, suffix of label = salt tested; for Emax ± SEM: relative effect to the control (SEQ ID NO: 32). On the procedure: Peptides were dissolved in phosphate buffered saline and further diluted in Tyrode's buffer (TB, Sigma-Aldrich) containing 0.1% BSA and 100 μM isobutyl-methyl-xanthine (IBMX, Sigma-Aldrich). Saos-2 cells were seeded at 50,000 cells/well in 96-microtiter plates and grown for two days before the efficacy assays. On the day of analysis, the growth medium was carefully removed by suction. Cells were washed once with 200 μl TB/0.1% BSA. The buffer was replaced with 100 μl reaction mixture (±test peptide), and incubated at 37° C. for 15 min. The reaction was stopped by addition of 25 μl of ice-cold 0.5 M HCl. Cells were in the following incubated on ice for 60 min. 75 μl acetate-buffer, pH6.2, was added to each well of a 96-well cAMP FlashPlate (Perkin-Elmer). […] FlashPlates were incubated overnight at 4° C., emptied by suction and counted in a TopCounter (Packard).
Determinations were performed in single determinations or triplicates at all doses. […] Standards were included as single determinations, duplicates or triplicates in each experiment, preferentially on each plate.
Concentration-dependent cAMP responses were imported into GraphPad Prism vers. 4 (GraphPad Software), transformed and plotted. […] Thus, a four-parameter logistic equation was used for determination of the EC50 values. Curves were fitted with a function for sigmoidal dose response curve (variable slope) non-linear fit Y=Bottom+(Top-Bottom)/(1+10̂((LogEC50−X)*HillSlope)) where X is the logarithm of concentration and Y is the response. Y starts at Bottom and goes to Top with a sigmoid shape. pEC50, Hill-coefficient and the maximally inducible concentration of cAMP (Emax) were evaluated.
Overall statistical differences were analyzed with Statistica (Statsoft) using one-way ANOVA. Post-hoc comparisons were made by the use of Fisher's Least Significance Test. Results were considered significant, when p was lower than 0.05.

In the case of `CC[C@H](C)[C@H](NC(=O)[C@H](CCC(=O)O)NC(=O)C(C)(C)NC(=O)[C@@H](NC(=O)C1(N)CCCC1)C(C)C)C(=O)N[C@@H](CCC(N)=O)C(=O)N[C@@H](CC(C)C)C(=O)N[C@@H](CC(C)C)C(=O)N[C@@H](Cc1c[nH]cn1)C(=O)N[C@@H](CCC(N)=O)C(=O)N[C@@H](CCCCNC(=N)N)C(=O)N[C@@H](C)C(=O)N[C@H]1CCCCNC(=O)C[C@@H](C(=O)O)NC(=O)[C@H](CC(N)=O)NC(=O)[C@H](CC(C)C)NC(=O)[C@H](Cc2c[nH]c3ccccc23)NC1=O` [SEQ ID NO: 5, H-Ac5c-Val-Aib-Glu-Ile-Gln-Leu-Leu-His-Gln-Har-Ala-Lys( )-Trp-Leu-Asn-Asp( )-OH] (H-[Ac5c]V[Aib]EIQLLHQ[hArg]AKWLND-OH; lactam 13-17), the EC50 was 72.4 nM and the “Emax ± SEM” value is given as 1.16 ± 0.12.

Regarding `CC[C@H](C)[C@H](NC(=O)[C@H](CCC(=O)O)NC(=O)C(C)(C)NC(=O)[C@@H](NC(=O)C1(N)CCCC1)C(C)C)C(=O)N[C@@H](CCC(N)=O)C(=O)N[C@@H](CC(C)C)C(=O)N[C@@H](CC(C)C)C(=O)N[C@@H](Cc1c[nH]cn1)C(=O)N[C@@H](CCC(N)=O)C(=O)N[C@@H](CCCCNC(=N)N)C(=O)N[C@@H](C)C(=O)N[C@H]1CCCCNC(=O)C[C@@H](C(N)=O)NC(=O)[C@H](CC(=O)O)NC(=O)[C@H](CC(C)C)NC(=O)[C@H](Cc2c[nH]c3ccccc23)NC1=O` [SEQ ID NO: 22, H-Ac5c-Val-Aib-Glu-Ile-Gln-Leu-Leu-His-Gln-Har-Ala-Lys( )-Trp-Leu-Asp-Asp( )-NH2] (H-[Ac5c]V[Aib]EIQLLHQ[hArg]AKWLDD-NH2; lactam 13-17), the EC50 was 74.1 nM and the “Emax ± SEM” value turned out to be 1.08 ± 0.04.

Take `CCC[C@H](NC(=O)[C@@H](NC(=O)C1(N)CCCC1)C(C)C)C(=O)N[C@@H](CCC(=O)O)C(=O)N[C@H](C(=O)N[C@@H](CCC(N)=O)C(=O)N[C@@H](CC(C)C)C(=O)N[C@@H](CC(C)C)C(=O)N[C@@H](Cc1c[nH]cn1)C(=O)N[C@@H](CCC(N)=O)C(=O)N[C@@H](CCCCNC(=N)N)C(=O)N[C@@H](C)C(=O)N[C@H]1CCCCNC(=O)C[C@@H](C(N)=O)NC(=O)[C@H](CC(N)=O)NC(=O)[C@H](CC(C)C)NC(=O)[C@H](Cc2c[nH]c3ccccc23)NC1=O)[C@@H](C)CC` [SEQ ID NO: 16, H-Ac5c-Val-Nva-Glu-Ile-Gln-Leu-Leu-His-Gln-Har-Ala-Lys( )-Trp-Leu-Asn-Asp( )-NH2] (H-[Ac5c]V[Nva]EIQLLHQ[hArg]AKWLND-NH2; lactam 13-17): the half-maximal effective concentration (EC50) was 120 nM and the “Emax ± SEM” value was found to be 1.03 ± 0.04.

As for `CC[C@H](NC(=O)[C@@H](NC(=O)C1(N)CCCC1)C(C)C)C(=O)N[C@@H](CCC(=O)O)C(=O)N[C@H](C(=O)N[C@@H](CCC(N)=O)C(=O)N[C@@H](CC(C)C)C(=O)N[C@@H](CC(C)C)C(=O)N[C@@H](Cc1c[nH]cn1)C(=O)N[C@@H](CCC(N)=O)C(=O)N[C@@H](CCCCNC(=N)N)C(=O)N[C@@H](C)C(=O)N[C@H]1CCCCNC(=O)C[C@@H](C(N)=O)NC(=O)[C@H](CC(N)=O)NC(=O)[C@H](CC(C)C)NC(=O)[C@H](Cc2c[nH]c3ccccc23)NC1=O)[C@@H](C)CC` [SEQ ID NO: 15, H-Ac5c-Val-Abu-Glu-Ile-Gln-Leu-Leu-His-Gln-Har-Ala-Lys( )-Trp-Leu-Asn-Asp( )-NH2] (H-[Ac5c]V[Abu]EIQLLHQ[hArg]AKWLND-NH2; lactam 13-17), the 50% effective concentration (EC50) was 60.3 nM and the “Emax ± SEM” value amounted to 1.04 ± 0.03.

As to `CC[C@H](C)[C@H](NC(=O)[C@H](CCC(=O)O)NC(=O)C1(NC(=O)[C@@H](NC(=O)C(C)(C)N)C(C)C)CCCC1)C(=O)N[C@@H](CCC(N)=O)C(=O)N[C@@H](CC(C)C)C(=O)N[C@@H](CC(C)C)C(=O)N[C@@H](Cc1c[nH]cn1)C(=O)N[C@@H](CCC(N)=O)C(=O)N[C@@H](CCCCNC(=N)N)C(=O)N[C@@H](C)C(=O)N[C@H]1CCCCNC(=O)C[C@@H](C(N)=O)NC(=O)[C@H](CC(N)=O)NC(=O)[C@H](CC(C)C)NC(=O)[C@H](Cc2c[nH]c3ccccc23)NC1=O` [SEQ ID NO: 13, H-Aib-Val-Ac5c-Glu-Ile-Gln-Leu-Leu-His-Gln-Har-Ala-Lys( )-Trp-Leu-Asn-Asp( )-NH2] (H-[Aib]V[Ac5c]EIQLLHQ[hArg]AKWLND-NH2; lactam 13-17), the EC50 was 53.7 nM and the “Emax ± SEM” value is reported as 0.96 ± 0.03.

`CC[C@H](C)[C@H](NC(=O)[C@H](CCC(=O)O)NC(=O)C(C)(C)NC(=O)[C@@H](NC(=O)C1(N)CCCC1)C(C)C)C(=O)N[C@@H](CCC(N)=O)C(=O)N[C@@H](CC(C)C)C(=O)N[C@@H](CCSC)C(=O)N[C@@H](Cc1c[nH]cn1)C(=O)N[C@@H](CCC(N)=O)C(=O)N[C@@H](CCCCNC(=N)N)C(=O)N[C@@H](C)C(=O)N[C@H]1CCCCNC(=O)C[C@@H](C(N)=O)NC(=O)[C@H](CC(=O)O)NC(=O)[C@H](CC(C)C)NC(=O)[C@H](Cc2c[nH]c3ccccc23)NC1=O` [SEQ ID NO: 23, H-Ac5c-Val-Aib-Glu-Ile-Gln-Leu-Met-His-Gln-Har-Ala-Lys( )-Trp-Leu-Asp-Asp( )-NH2] (H-[Ac5c]V[Aib]EIQLMHQ[hArg]AKWLDD-NH2; lactam 13-17): the concentration giving a half-maximal response (EC50) was 33.1 nM and the “Emax ± SEM” value came to 1.16 ± 0.08.

Take `CC[C@H](C)[C@H](NC(=O)[C@H](CCC(=O)O)NC(=O)C(C)(C)NC(=O)[C@@H](NC(=O)C1(N)CCCC1)C(C)C)C(=O)N[C@@H](CCC(N)=O)C(=O)N[C@@H](CC(C)C)C(=O)N[C@@H](CCSC)C(=O)N[C@@H](Cc1c[nH]cn1)C(=O)N[C@@H](CCC(N)=O)C(=O)N[C@@H](CCCCNC(=N)N)C(=O)N[C@@H](C)C(=O)N[C@H]1CCCCNC(=O)C[C@@H](C(N)=O)NC(=O)[C@H](CC(N)=O)NC(=O)[C@H](CC(C)C)NC(=O)[C@H](Cc2c[nH]c3ccccc23)NC1=O` [2A, H-Ac5c-Val-Aib-Glu-Ile-Gln-Leu-Met-His-Gln-Har-Ala-Lys( )Trp-Leu-Asn-Asp( )-NH2] (H-[Ac5c]V[Aib]EIQLMHQ[hArg]AKWLND-NH2; lactam 13-17): the 50% effective concentration (EC50) was 6.31 nM and the “Emax ± SEM” value is reported as 0.99 ± 0.03.

For `CC[C@H](C)[C@H](NC(=O)[C@H](CCC(=O)O)NC(=O)C(C)(C)NC(=O)[C@@H](NC(=O)C1(N)CCCC1)C(C)C)C(=O)N[C@@H](CCC(N)=O)C(=O)N[C@@H](CC(C)C)C(=O)N[C@@H](CC[S+](C)[O-])C(=O)N[C@@H](Cc1c[nH]cn1)C(=O)N[C@@H](CCC(N)=O)C(=O)N[C@@H](CCCCNC(=N)N)C(=O)N[C@@H](C)C(=O)N[C@H]1CCCCNC(=O)C[C@@H](C(N)=O)NC(=O)[C@H](CC(N)=O)NC(=O)[C@H](CC(C)C)NC(=O)[C@H](Cc2c[nH]c3ccccc23)NC1=O` (stereo partly drawn) [SEQ ID NO: 40, H-Ac5c-Val-Aib-Glu-Ile-Gln-Leu-Met(O)-His-Gln-Har-Ala-Lys( )-Trp-Leu-Asn-Asp( )-NH2] (H-[Ac5c]V[Aib]EIQL[Met(O)]HQ[hArg]AKWLND-NH2; lactam 13-17), the concentration for a half-maximal effect (EC50) was 126 nM and the “Emax ± SEM” value came out at 1.1.

As to `CC[C@H](C)[C@H](NC(=O)[C@H](CCC(=O)O)NC(=O)C(C)(C)NC(=O)[C@@H](NC(=O)C1(N)CCCC1)C(C)C)C(=O)N[C@@H](CCC(N)=O)C(=O)N[C@@H](CC(C)C)C(=O)N[C@@H](CCSC)C(=O)N[C@@H](Cc1c[nH]cn1)C(=O)N[C@@H](CCC(N)=O)C(=O)N[C@@H](CCCCNC(=N)N)C(=O)N[C@@H](C)C(=O)N[C@H]1CCCCNC(=O)C[C@@H](C(N)=O)NC(=O)[C@H](CC(N)=O)NC(=O)[C@H](CC(C)C)NC(=O)[C@H](Cc2c[nH]c3ccccc23)NC1=O` [2C, H-Ac5c-Val-Aib-Glu-Ile-Gln-Leu-Met-His-Gln-Har-Ala-Lys( )Trp-Leu-Asn-Asp( )-NH2] (H-[Ac5c]V[Aib]EIQLMHQ[hArg]AKWLND-NH2; lactam 13-17), the EC50 is 6.61 nM and the “Emax ± SEM” value was 0.94 ± 0.03.
